Measurements published in PMC6274772, “Guided Evolution of Recombinant Bombyx mori Acetylcholinesterase II by Homology Modeling to Change Pesticide Sensitivity” (International Journal of Molecular Sciences, 2018).
Read-outs that look alike come from different tables or passages of the source.

How the values were obtained:
[1] = molecular target: T1, rBmAChE II (recombinant Bombyx mori type II acetylcholinesterase) (Bombyx mori, UniProt B0FGT2); assay: Ellman assay inhibition; type: biochemical; settings: crude enzyme supernatant; substrate acetylthiocholine iodide (ATChI), DTNB, 50 mM phosphate, 37 °C; covalent
T1 construct: gene ace2; predicted N-terminal signal peptide removed, codon-optimized, pPIC9K in Pichia pastoris GS115, secreted; crude culture supernatant; 604 residues
Source text: Ellman assay inhibition on rBmAChE II (recombinant Bombyx mori type II acetylcholinesterase) | inhibition of rBmAChE II mutants by various pesticides (malathion, methomyl, carbaryl, and carbofuran-3-hydroxy)

[2] = molecular target: T2, rBmAChE II (recombinant Bombyx mori type II acetylcholinesterase) (Bombyx mori, UniProt B0FGT2, Y398W); settings: crude enzyme supernatant, substrate acetylthiocholine iodide (ATChI), DTNB, 50 mM phosphate, 37 °C, covalent
T2 construct: gene ace2

[3] = molecular target: T3, rBmAChE II (recombinant Bombyx mori type II acetylcholinesterase) (Bombyx mori, UniProt B0FGT2, Y398F); settings: crude enzyme supernatant; substrate acetylthiocholine iodide (ATChI), DTNB, 50 mM phosphate, 37 °C; covalent
T3 construct: gene ace2

[4] = molecular target: T1, rBmAChE II (recombinant Bombyx mori type II acetylcholinesterase); type: biochemical; settings: 30 µL (printed 30 mL) of 0.1 mg/mL physostigmine, 10 min preincubation at 37 °C; crude enzyme supernatant; ATChI substrate, DTNB, 50 mM phosphate
[5] = molecular target: T4, rBmAChE II (recombinant Bombyx mori type II acetylcholinesterase) (Bombyx mori, UniProt B0FGT2, Y398G); settings: crude enzyme supernatant; substrate acetylthiocholine iodide (ATChI), DTNB, 50 mM phosphate, 37 °C; covalent
T4 construct: gene ace2
T4 sequence (B0FGT2 entry or part of it Y398G): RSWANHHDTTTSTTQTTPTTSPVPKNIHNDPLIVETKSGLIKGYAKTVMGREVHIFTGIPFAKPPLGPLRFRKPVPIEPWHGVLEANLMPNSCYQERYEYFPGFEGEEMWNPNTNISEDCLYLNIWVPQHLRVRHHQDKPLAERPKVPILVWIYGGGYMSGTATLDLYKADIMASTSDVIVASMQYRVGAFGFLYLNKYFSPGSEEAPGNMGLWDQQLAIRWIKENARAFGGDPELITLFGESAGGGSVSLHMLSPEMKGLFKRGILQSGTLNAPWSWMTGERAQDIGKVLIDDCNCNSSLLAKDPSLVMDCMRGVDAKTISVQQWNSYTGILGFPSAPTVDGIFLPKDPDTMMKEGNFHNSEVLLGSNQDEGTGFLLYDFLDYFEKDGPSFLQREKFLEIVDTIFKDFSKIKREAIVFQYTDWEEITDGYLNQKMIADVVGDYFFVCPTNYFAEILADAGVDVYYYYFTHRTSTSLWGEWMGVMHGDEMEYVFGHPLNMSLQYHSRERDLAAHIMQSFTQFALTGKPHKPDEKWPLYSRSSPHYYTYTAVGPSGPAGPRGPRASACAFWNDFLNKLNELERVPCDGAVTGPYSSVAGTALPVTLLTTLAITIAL

T2 sequence (B0FGT2 entry or part of it Y398W): as the sequence (B0FGT2 entry or part of it Y398G) above, with G375W counted along it
T1 sequence (B0FGT2 entry or part of it): as the sequence (B0FGT2 entry or part of it Y398G) above, with G375Y counted along it
T3 sequence (B0FGT2 entry or part of it Y398F): as the sequence (B0FGT2 entry or part of it Y398G) above, with G375F counted along it

SMILES	IC50 [1]	IC50 ([2]; stated gain)	IC50 [3]	Ellman assay, remaining activity [4]	IC50 [2]	IC50 [5]
CCOC(=O)CC(SP(=S)(OC)OC)C(=O)OCC (stereo not drawn) [malathion]	2820 nM	5430 nM	1130 nM			
CNC(=O)Oc1ccc2c(c1)[C@]1(C)CCN(C)[C@@H]1N2C [physostigmine]				All four enzyme variants could be inhibited by physostigmine.		
CNC(=O)ON=C(C)SC [methomyl]	750 nM		470 nM		4380 nM	
CNC(=O)Oc1cccc2c1OC(C)(C)C2O (stereo not drawn) [carbofuran-3-hydroxy]	76 nM		43 nM		246 nM	193 nM
CNC(=O)Oc1cccc2ccccc12 [carbaryl]	33 nM		21 nM		16 nM	56 nM
